From patent US11135236B2, “Retinoic acid receptor gamma agonists to attenuate anthracycline-induced cardiotoxicity” (Northwestern University, priority 2018, dated 2021)
“Also recorded” adds a separate entry of the source. Marks after values point to notes of the source that are not given here.

How the values were obtained:
[1] = system: MCF7; test: breast cancer cell viability after 72 h of doxorubicin and RARG agonists co-treatment; format: cell-based, human; conditions: MCF7, doxorubicin LD50 with agonist co-treatment, 10 μM, footnote: 1 μM each, 72 h; Vehicle 0.490
Description: (§2) 384-well plate-based cell viability, caspase 3/7 activity, and reactive oxygen species (ROS) assays. […] Luminescence was measured using a VarioSkan Lux Multi-Mode Reader (Thermo Scientific) with an integration time of 0.25 sec. 10 μM staurosporine (MedChemExpress) was used as a positive control. […] 10 μM staurosporine and 50 μM menadione (both MedChemExpress) was used as a positive control, respectively. Data were analyzed using Prism 7.0 software (GraphPad) using standard dose-response guidelines.
Breast cancer cell lines. Four human breast cancer cell lines were used, MCF7 (adenocarcinoma, ATCC HTB-22) and Hs 578T (carcinsarcoma, ATCC HTB-126) both cultured in RPMI 1640 (Corning) with 10% FBS (Opti-Gold, GenDEPOT), MDA-MB-231 (adenocarcinoma, ATCC HTB-26) and MDA-MB-468 (adenocarcinoma, ATCC HTB-131) both cultured in DMEM (Corning) with 10% FBS. All cells were cultured on uncoated tissue culture plates (Greiner) and passaged with TrypLE Express (Gibco).

[2] = system: C57BL/6J Mice; test: mouse model of doxorubicin-induced cardiomyopathy, echocardiography; format: in vivo; conditions: doxorubicin 3 mg kg^−1 i.p. twice weekly for 3 weeks, agonist 12 mg kg^−1 oral once a day, at three weeks
Source text: (§1) Mouse model of doxorubicin-induced cardiomyopathy and drug administration. […] For the control group, we treated mice with corn oil in the same schedule as agonist administration. We recorded an echocardiogram once a week (day 0, day 7, day 14, and day 21) and terminated the experiment at day 21. Hearts were harvested for western blot analyses as mentioned above.
Echocardiographic evaluation. Mice were studied at baseline and weekly during the protocol under light anesthesia with isoflurane (induction 3%, maintenance 1.5%). 2D images in the parastemal short axis were obtained with a GE Vivid 7 ultrasound system (GE Healthcare) equipped with a 13 MHz transducer. Left ventricular end-systolic (LVESD) and end-diastolic (LVEDD) dimensions were measured and left ventricular fractional shortening (FS) was calculated.

[3] = system: TOP2B, pERK and BCL2 in the hearts of mice; test: Western blot of mouse hearts at three weeks after treatment; format: in vivo; conditions: doxorubicin plus oral agonist
Description: Western blot. We washed and harvested cells in cold PBS and collected them by centrifugation at 20,000 g for 10 min. at 4° C. Pellet was lysed in PBS containing 1% SDS and protease inhibitors (cOmplete, ROCHE) and sonicated (2 pulses of 12 sec at 125 Watt) to shear DNA. We centrifuged the samples at 20,000 g for 15 min. at RT to precipitate and discard the insoluble material and the protein concentration in the supernatant was quantified using BCA assay (Thermo Scientific) following manufacturer's instructions. 20 μg protein/sample were subject to SDS-PAGE in a 9% acrylamide gel for 45 min. at 180 V. and transferred to a PVDF membrane (Immobilon-P, Millipore) at 200 mA. For 90 min. Membranes were blocked in TBST containing 5% milk for 1 h. at RT and incubated at 4° C. overnight with the following primary antibodies: 1:1000 monoclonal rabbit IgG RARG (Abcam, ab187159), 1:1000 polyclonal rabbit IgG TOP2B (Abcam, ab125297), 1:5000 polyclonal rabbit IgG β-Tubulin (Sigma, T2200), 1:5000 monoclonal mouse IgG2a β-Actin (Sigma, A5316). The membrane was washed three times for 10 min with TBST and incubated with the appropriate secondary antibody: 1:5,000 HRP-goat anti-mouse IgG or HRP-goat anti-rabbit IgG (GE NA931V and NA934V) for 1 h. at RT. After three additional washes with TBST, membranes were developed by chemiluminiscence (SuperSignal West Pico, Thermo Scientific). Signals were captured using a CCD camera-based imager (Azure Biosystems) and quantified using Image J software. Mice heart tissues were harvested and homogenized using lysis buffer (80 mM NaCl, 0.05% Triton X, 1 mM EDTA, 20 mM HEPES, 0.5% sodium deoxycholate, 1 mM DTT, 20 mM β-glycerophosphate) with TissueLyser LT (Qiagen) and centrifuged at 10,000 rpm for 15 min at 4° C. Proteins were quantified with Bradford (Bio-Rad) and separated by TrisGlycine SDS/PAGE (Bio-Rad). Transferred proteins on nitrocellulose membrane were probed against TOP2B (R&D Systems), phosphorylated ERK1/2 (Cell Signaling Technologies), BCL2 (Santa Cruz Biotechnology), and GAPDH (Advanced ImmunoChemical).
as §1

[4] = system: control hiPSC-CMs; conditions: 1 μM CD1530 and 30 μM U0126, Control hiPSC-CMs, 72 h doxorubicin
Description: as §2

[5] = system: RARG-WT hiPSC-CMs; conditions: RARG-WT hiPSC-CMs, agonist 1 μM, 72 h doxorubicin
Description: as §2

[6] = system: ERK1/2; test: MSD analysis of phosphorylated ERK in hiPSC-CMs; format: cell-based, human; conditions: Control hiPSC-CMs treated with doxorubicin 24 h, with or without pre/co-treatment
Description: MSD analysis of phosphorylated ERK. hiPSC-CMs were collected in lysis buffer (150 mM NaCl, 1% TritonX-100, 50 mM Tris-HCl, pH 8.0) supplemented with Phosphatase Inhibitor II (1:100, Sigma-Adrich), Phosphatase Inhibitor Cocktail 3 (1:100, Sigma-Adrich), 1 mM NaVO4 and protease inhibitors (cOmplete, ROCHE). We centrifuged the samples at 50,000 g for 15 min. at 4° C. to precipitate and discard the insoluble material and the protein concentration in the supernatant was quantified using BCA assay (Thermo Scientific) following manufacturer's instructions. 2.5 μg protein/sample were analyzed using the MSD Phospho(Thr202/yr204; Thr185/Tyr187)/Total ERK1/2 Assay Whole Cell Lysate Kit (Meso Scale Discovery, K15100D-1), according to manufacturer's recommendations. The ratio of phosphorylated ERK was normalized to Total ERK1/2 signal, and analyzed using Prism 7.0 software (GraphPad).

Compound | LD50 [1] | cardiac function (fractional shortening) compared with vehicle treatment [2] | pERK in the murine hearts [3] | effect of ERK signaling inhibition on the protective effect of CD1530 [4] | increase of doxorubicin LD50 [5] [fold] | pERK [6] | BCL2 in the murine hearts [3] | TOP2B in the murine hearts [3]
CC1=C(/C=C/C(C)=C/C=C/C(C)=C/C(=O)O)C(C)(C)CCC1 [ATRA, 3,7-Dimethyl-9-(2,6,6-trimethyl-1-cyclohexen-1-yl)-2E,4E,6E,8E-nonatetraenoic acid] | 0.355 µM | marginally improved | significantly increased | – | – | – | – | –
N#CC(=C(/N)Sc1ccccc1N)/C(C#N)=C(\N)Sc1ccccc1N [U0126] | – | – | – | completely abolished the protective effect of CD1530 | – | – | – | –
O=C(O)c1ccc(-c2ccc3cc(O)c(C45CC6CC(CC(C6)C4)C5)cc3c2)cc1 [CD1530, 4-(6-Hydroxy-7-tricyclo[3.3.1.13,7]dec-1-yl-2-naphthalenyl)benzoic acid] | 0.275** μM | significantly higher | significantly increased | – | 4 | significant increase in pERK; also recorded: significant upregulation of ERK expression | significant upregulation | modest but non-significant downregulation
O=C(O)c1ccc2cc(-c3ccc(O)c(C45CC6CC(CC(C6)C4)C5)c3)ccc2c1 [CD437, 6-(4-Hydroxy-3-tricyclo[3.3.1.13,7]dec-1-ylphenyl)-2-naphthalenecarboxylic acid] | 0.343 µM | – | – | – | – | – | – | –
